Tests used:
Type in all cases: cell-based, human
[1] = system: day 3 early somite progenitors; assay: Patterning of early somite progenitors into sclerotome or dermomyotome; details: 21K with C59, 2-3 days
Protocol: Day 2 paraxial mesoderm was briefly washed (DMEM/F12) and further differentiated into day 3 early somite/somitomere precursors for 24 hours (1 μM A-83-01+250 nM LDN-193189+1 μM C59+500 nM PD0325901). Subsequently, day 3 early somites were dorsoventrally patterned into either ventral somites/sclerotome (5 nM 21K+1 μM C59) or dorsal somites/dermomyotome (3 μM CHIR99021+150 nM Vismodegib). Sclerotome induction was conducted for 48-72 hours (leading to day 5-6 ventral somite progenitors). […] Media was changed 24 hours for all steps. The Hedgehog agonist 21K, which has been previously described in, e.g., Brunton et al., 2009 the disclosure of which is incorporated herein by reference in its entirety, was commercially synthesized.
Day 3 early somites were briefly washed (DMEM/F12), treated with BMP4+CHIR99021+Vismodegib for 24 hours, washed again (DMEM/F12) and subsequently treated with CHIR99021 (3 μM)+21K (5 nM) for 24 hours. This day 5 dermomyotome was further empirically differentiated towards skeletal muscle-like progeny (using medium containing 2% horse serum, which has been previously described in, e.g., Xu et al. 2013, the disclosure of which is incorporated herein by reference in its entirety) for 12 days, yielding day 17 skeletal muscle-containing populations.
FIG. 11: A) To determine the length of time required for sclerotome differentiation, a qPCR timecourse was performed, encompassing undifferentiated hESCs (D0), day 2 hESC-derived paraxial mesoderm (D2 PXM), day 3 hESC-derived early somite progenitors, and hESC-derived day 3 early somite progenitors that were exposed to sclerotome inductive conditions (5 nM 21K+1 μM C59) for 24 or 48 hours. B) Description of EF1α-BCL2-T2A-GFP lentiviral construct (otherwise known as “C306”; top) and FACS plot of a stably-transduced polyclonal H9 hESC line with near-uniform expression of the BCL2-T2A-GFP transgene (green contour) by comparison to uncolored wild-type hESCs (bottom) (see above methods for details of derivation of the H9 BCL2-T2A-GFP hESC line). C) Higher-magnification picture of BCL2-T2A-GFP hESC-derived sclerotome ectopic bone grafts (originally described above in FIG. 4, panel E), showing that despite the near-ubiquitous expression of GFP throughout the ectopic bone graft (indicating its human provenance), the blood vessels are clearly GFP-negative and therefore presumably derived from the mouse host; scale bar=1 mm. […] L) Description of EF1a-BCL2-T2A-GFP lentiviral construct (otherwise known as “C306”; top) and FACS plot of a stably-transduced polyclonal H9 hESC line with near-uniform expression of the BCL2-T2A-GFP transgene (green contour) by comparison to uncolored wild-type hESCs (bottom) (see the methods described herein for details of derivation of the H9 BCL2-T2A-GFP hESC line). M) Description of UBC-Luciferase-T2A-tdTomato lentiviral construct (top); bioluminescent assay of cultured H9 UBC-Luciferase-T2A-tdTomato hESCs validates that these cells are luciferase-expressing in vitro (bottom).

[2] = system: hESC-derived lateral mesoderm; assay: Lateral mesoderm patterning, qPCR
Protocol: Subsequently, day 1 anterior primitive streak was briefly washed (DMEM/F12) and differentiated towards day 2 paraxial mesoderm for 24 hours (1 μM A-83-01+3 μM CHIR99021+250 nM LDN-193189+20 ng/mL FGF2). Separately, day 1 mid primitive streak was differentiated towards day 2 lateral mesoderm for 24 hours (1 μM A-83-01+30 ng/mL BMP4+1 μM C59; with 2 μM SB-505124 sometimes used instead of A-83-01).
(§1) C) To reveal the possible identity of non-cardiac mesoderm lineages that were contaminating cardiac mesoderm-containing cultures, NKX2.5-GFP hESCs were differentiated towards mid primitive streak (day 1) and were differentiated towards a heterogeneous population containing cardiac mesoderm (day 3) by treatment with SB-505124+BMP4+C59 (without FGF2) on days 2-3 of differentiation. FACS was performed on day 3 to purify either NKX2.5-GFP^+ or NKX2.5-GFP^− cells (top subpanels) which were sorted for qPCR (bottom subpanels). Gene expression was normalized to expression of a gene in the NKX2.5-GFP^+ fraction (dotted line). D) Timecourse of gene expression in hESCs differentiating towards mid primitive streak and lateral mesoderm, with treatment by SB-505124+BMP4+C59 on days 2-3 of differentiation. […] G) To assess whether a stabilized vitamin C analog (ascorbic acid-2-phosphate) (AA2P) enhanced cardiac mesoderm differentiation into cardiomyocytes, day 4 hESC-derived cardiac mesoderm was exposed to BMP4 (30 ng/mL)+XAV939 (1 μM) for 48 hours in the presence or absence of 200 μg/mL AA2P and qPCR was conducted of day 6 populations; qPCR data were normalized such that expression values in the highest-expressing sample was normalized=1.0. […] J) In the mouse embryo, endocardium (progenitors to heart-affiliated endothelium) are marked by transient coexpression of pan-heart marker Nkx2.5 together with endothelial markers (Ferdous et al., 2009; Stanley et al., 2002).

SOX17-mCherry hESCs = assay: Hematopoietic mesoderm and SOX17+CD34+ hemogenic precursor specification
Protocol: (§2) SOX17^mCherry/+ H9 hESCs (referred to as SOX17-mCherry hESCs throughout this study) were routinely propagated in mTeSR1 (StemCell Technologies)+1% penicillin/streptomycin. They were passaged ˜1:12-1:25 as fine clumps using Accutase (Gibco) onto plates precoated with a Geltrex substratum (Gibco) in mTeSR1 medium supplemented with thiazovivin ([…]; a ROCK inhibitor). After overnight plating, hESCs were washed (DMEM/F12) and differentiated towards posterior PS using BMP4 (15-40 ng/mL, R&D Systems), CHIR99021 ([…]), FGF2 (20 ng/mL, Invitrogen) and PIK90 (100 nM, Calbiochem) for 24 hours, with the optional inclusion of Activin (30 ng/mL, R&D Systems) to induce mid PS. Day 1 mid or posterior PS was subsequently washed (DMEM/F12) and further differentiated using BMP4 (40 ng/mL), GDC-0941 (0.25-2.5 μM, Cellagen Technology), Forskolin (10 μM, Tocris), SB-505124 ([…]), VEGF (100 ng/mL, R&D Systems), XAV939 (1 μM, Tocris) and ascorbic acid-2-phosphate (200 μg/mL, Sigma) for 24 hours. Day 2 cultures were further directed into the definitive hematopoietic lineage/hemogenic precursors by Activin A (15 ng/mL), GDC-0941 (0.25-2.5 μM), VEGF (100 ng/mL), XAV939 (1 μM) and ascorbic acid-2-phosphate (200 μg/mL) for 24 hours. Day 3 definitive hematopoietic progenitors were subsequently differentiated into early Runx1^lowGfi1^low hemogenic intermediates through day 4-5 treatment with BMP4 (50 ng/mL), TTNPB (500 nM), VEGF (100 ng/mL) and XAV939 (1 μM) for 48 hours, supplemented with SB-505124 (2 μM) on day 5. Day 5 populations were then dissociated into single cells, counted and reaggregated in individual wells of a low-adhesion V-bottom or U-bottom 96-well plate (e.g., Thermo Fisher, catalog no. 249952) with ˜15,000-20,000 cells seeded per well. Aggregates were cultured for 48 additional hours until day 7 in BMP4 (50 ng/mL), TTNPB (500 nM), VEGF (100 ng/mL), XAV939 (1 μM), SB-505124 (2 μM), SCF (25-50 ng/mL, R&D Systems), IL6 (10 ng/mL, R&D Systems) and IL6RA (250-1000 ng/mL, R&D Systems). All differentiation was conducted in serum-free CDM2 fully-defined basal media.

[3] = system: hESC-derived cardiac mesoderm; assay: Cardiac mesoderm differentiation into cardiovascular fates, qPCR; details: added to WNT blockade with BMP activation
Protocol: Day 2 lateral mesoderm was differentiated into day 4 cardiac mesoderm by treating them with 1 μM A8301+30 ng/mL BMP4+1 μM C59+20 ng/mL FGF2 for 48 hrs, or alternatively, with 1 μM A8301+30 ng/mL BMP4+20 ng/mL FGF2 for 24 hrs followed by 25 ng/mL Activin+30 ng/mL BMP4+1 μM C59 for the next 24 hrs (schema in FIG. 5E; positive effect of mid-stage Activin shown in FIG. 12K). Subsequently, day 4 cardiac mesoderm was briefly washed (DMEM/F12) and treated with 30 ng/mL BMP4+1 μM XAV939+200 μg/mL 2-phospho-ascorbic acid (Sigma) for 48-96 hrs to yield day 6-8 cardiomyocyte-containing populations. Spontaneously contracting cardiomyocyte foci were evident from day 8 onwards.
as §1

[4] = system: day 3 hemogenic precursors; assay: Hemogenic precursors into day 5 hematopoietic intermediates
Protocol: as §2

[5] = system: day 5 hematopoietic intermediates; assay: Day 5-7 continued differentiation of hematopoietic intermediates, factor withholding; details: individually withholding the factor from the 8 factors, 48 hours
Protocol: as §2

lateral mesoderm = assay: Forelimb versus hindlimb progenitor specification from lateral mesoderm; details: RA signaling activated for 24 hours during lateral mesoderm induction (D1-2)
Protocol: Undifferentiated hPSCs (wild-type H7 as well as TBX5-Venus V19-2 H9 hESCs) were maintained in mTeSR1 media on Geltrex-coated plates. As described, they were differentiated into mid primitive streak for 24 hours (D0-1; 30 ng/mL Activin+40 ng/mL BMP4+6 μM CHIR99021+20 ng/mL FGF2+100 nM PIK90) and subsequently differentiated into lateral mesoderm (D1-2; 1 μM A-83-01+30 ng/mL BMP4+1 μM C59), with the inclusion of 50 nM of TTNPB or 2 μM ATRA on D1-2 for trunk lateral mesoderm that was subsequently competent for forelimb differentiation.
Day 2 trunk lateral mesoderm was differentiated into day 3 forelimb progenitors (D2-3; 1 μM A-83-01+1 μM DMH1+3 μM CHIR99021). By contrast, day 2 non-trunk lateral mesoderm was differentiated into day 3 hindlimb progenitors (D2-3; 25 ng/mL Activin+1 μM DMH1+3 μM CHIR99021).

Cc1cc(-c2ccc(CC(=O)Nc3ccc(-c4cccnc4)cc3)cc2)ccn1 [C59, 4-(2-Methyl-4-pyridinyl)-N-[4-(3-pyridinyl)phenyl]benzeneacetamide]
sclerotome fate induction [1]: efficiently induced the sclerotome fate | lateral mesoderm fate (qPCR) ([2]; day 2 lateral mesoderm, SB-505124+BMP4 with CHIR99021 or C59, 24 hours): induced an anterior lateral mesoderm/cardiac mesoderm fate | pan-lateral mesoderm marker FOXF1 expression ([2]; last 12 hrs C59 or 3 μM CHIR in addition to BS): not markedly changed

O=C1O[C@H]([C@@H](O)CO)C(O)=C1OP(=O)(O)O [ascorbic acid-2-phosphate]
efficiency of CD34+ progenitors produced by day 3 (SOX17-mCherry hESCs; included on days 2 and 3): moderately enhanced the efficiency of CD34^+ progenitors | cardiomyocyte differentiation [3]: further enhanced

O=c1[nH]c(-c2ccc(C(F)(F)F)cc2)nc2c1CSCC2 [XAV939, 3,5,7,8-Tetrahydro-2-[4-(trifluoromethyl)phenyl]-4H-thiopyrano[4,3-d]pyrimidin-4-one]
GATA1 expression ([4]; day 5): pivotal to prevent BMP-induced GATA1 expression | SOX17+ cells formed by day 3 (SOX17-mCherry hESCs; treatment on day 2-3, 24 hours): doubled the formation of SOX17^+ cells | GFI1B expression [5]: strongly diminished

C/C(=C\c1ccc(C(=O)O)cc1)c1ccc2c(c1)C(C)(C)CCC2(C)C [TTNPB]
TBX20 expression ([4]; day 5): important to downregulate TBX20 expression | RUNX1 expression by day 5 ([4]; withdrawal of the factor from BMP, VEGF, XAV939, TTNPB): crippled RUNX1 expression | forelimb transcription factor TBX5 expression on D3 (lateral mesoderm): paramount for lateral mesoderm to subsequently express key forelimb transcription factor TBX5

Source: patent publication US10787640B2, “Producing mesodermal cell types and methods of using the same” (The Board of Trustees of the Leland Stanford Junior …, priority 2015, dated 2020)
